For assay [1], the species on record is Mus musculus. As to the kind of experiment: Percentage control against LPS stimulated IL-1-alpha formation in murine peritoneal macrophages was measured by IL-1-alpha ELISA. It counts as functional. The arrangement: concentration or dose not given beside the values.
For assay [2], the system named is Moloney murine leukemia virus. Kind of assay: Compound was tested for its antagonistic activity against Moloney leukemia virus (MoLV) replication. It counts as functional, organism-based.

Consider 5 molecules from ChEMBL document CHEMBL1126537, “Synthesis and biological activity of sulfoximine-modified myristic acid analogues” (Bioorg Med Chem Lett, 1993).

`CCCCCCCCCCCCC[S+](=N)([O-])CC(=O)OCC` (stereo not given) displayed a Control in assay [1] of 190%. This molecule had an IC50 in assay [2] of 24 µM.
Take `CCCCCCCCCCCCC[S+](=N)([O-])CCC` (stereo not given): the Control in assay [1] is reported as 206%. In addition, in assay [2], inhibition was half-maximal at 10 µM (IC50).
On to `CCCCCCCCCCCCC[S+](C)(=N)[O-]` (stereo not given), for which the Control in assay [1] was 123%. In assay [2], the IC50 was 5 µM.
Taken in the same sequence, the figures for `CCCCCCCCCCCCC[S+](=N)([O-])Cc1ccccc1` (stereo not given) were 326% and 15 µM.
`C/C=C/C/C=C/CCC(=O)[C@H]1O[C@H]1C(N)=O` [CERULENIN] displayed a Control in assay [1] of 170%. In assay [2], this molecule had a half-inhibitory concentration (IC50) of 2.7 µM.
